Among the test systems are SF-268; TK-10; OVCAR-4; LOX IMVI; COLO 205; SF-295; HT-29; UACC-62; M14; MOLT-4; 786-0; HOP-62; EKVX; CCRF-CEM; SK-MEL-28; UO-31; NCI-H522; HOP-92.
Assay in all cases: NCI-60 cell line screen, 48 h

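1) Cells in 96-well plates. 2) Compound, 48 h, 5 concentrations. 3) Linear interpolation between surrounding doses. 4) Unreached endpoint = highest concentration. Abbreviation: GI50, concentration required for 50% inhibition of growth.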 Calls of active or inactive are those of the source. Cut-off read from the data, not from the text of the source: active = GI50 up to about 1.1 µM and inactive = higher.

In the case of `O=C(O)CCSCc1ccccc1`, the GI50 in the test on SF-268, in the test with TK-10, in the test on OVCAR-4, in the test on LOX IMVI, in the test with COLO 205 and in the test with SF-295 was > 100 µM (inactive) each time. The GI50 in the test with HT-29, with UACC-62, in the test on M14, in the test with MOLT-4, with 786-0 and with HOP-62 was > 100 µM (inactive) in each case. Further, the GI50 in the test on EKVX, in the test with CCRF-CEM, in the test on SK-MEL-28, with UO-31 and with NCI-H522 was > 100 µM (inactive) in each case.
`O=C(O)C1C(C(=O)O)C2C(=O)C=CC1N2Cc1ccccc1` (stereo unspecified): the GI50 with HOP-92 is 9.55 µM (inactive); in the test with SF-268 it was 3.24 µM (inactive); in the test with TK-10, 2.84 µM (inactive); in the test with OVCAR-4, 4.32 µM (inactive); in the test on LOX IMVI, 3.4 µM (inactive); in the test on COLO 205, 6.98 µM (inactive). Also, the GI50 in the test on SF-295 was 11.3 µM (inactive); in the test on HT-29 it was 3.12 µM (inactive); in the test on UACC-62, 7.96 µM (inactive); in the test on M14 it was 2.25 µM (inactive); in the test on MOLT-4, 3.54 µM (inactive); with 786-0, 2.49 µM (inactive). In addition, the GI50 with HOP-62 was 2.59 µM (inactive); in the test with EKVX it was 3.06 µM (inactive); in the test with CCRF-CEM it was 0.383 µM (active); in the test with SK-MEL-28, 4.29 µM (inactive); in the test on UO-31, 1.71 µM (inactive); with NCI-H522 it was 1.87 µM (inactive).
As to `CCCCCCCCCCCCCCCCCCNc1ccn(C2OC(COP(=O)(O)O)C(O)C2O)c(=O)n1` (stereo unspecified), the GI50 with HOP-92, in the test on SF-268, with TK-10, in the test with OVCAR-4, in the test with LOX IMVI and in the test on COLO 205 was > 100 µM (inactive) in each case. For the same compound, the GI50 with SF-295, in the test with HT-29, in the test with UACC-62, in the test on M14, in the test on MOLT-4 and in the test with 786-0 was > 100 µM (inactive) each time. Further, the GI50 in the test on HOP-62, in the test on EKVX, with CCRF-CEM, in the test on SK-MEL-28, in the test on UO-31 and in the test with NCI-H522 was > 100 µM (inactive) in each case.
Take `CCOc1ccc(/C=C2/C(=O)N/C(=N\C(C)=O)N2C)cc1`: the GI50 with HOP-92, in the test on SF-268, with TK-10, in the test on OVCAR-4, in the test with LOX IMVI and with COLO 205 was > 100 µM (inactive) in each case. Moreover, the GI50 is > 100 µM (inactive) in the test with SF-295; > 100 µM (inactive) in the test on HT-29; > 100 µM (inactive) in the test on UACC-62; > 100 µM (inactive) in the test with M14; 39.6 µM (inactive) in the test on MOLT-4; > 100 µM (inactive) with 786-0. Also, the GI50 in the test with HOP-62 was 96.6 µM (inactive); with EKVX, 54.2 µM (inactive); in the test with SK-MEL-28, > 100 µM (inactive); in the test on UO-31, > 100 µM (inactive).
Regarding `COC(=O)C1(C)C=CC(=O)C2(C)C1C(O)C1OC3CC(c4ccoc4)C(C)=C3C1(C)C2CC(=O)O` (stereo unspecified), the GI50 in the test on HOP-92, in the test with SF-268, in the test with TK-10, in the test on OVCAR-4, in the test on LOX IMVI and in the test with COLO 205 was > 100 µM (inactive) in each case. For the same compound, the GI50 in the test with SF-295, in the test on UACC-62, with M14, in the test with MOLT-4, in the test on 786-0 and in the test with EKVX was > 100 µM (inactive) each time. Also, the GI50 in the test on CCRF-CEM, in the test with SK-MEL-28, with UO-31 and in the test with NCI-H522 was > 100 µM (inactive) each time.
Take `Cc1cc(-c2ccc[nH]2)on1`: the GI50 with HOP-92, with SF-268, with TK-10, in the test on OVCAR-4, in the test with COLO 205 and in the test on SF-295 was > 100 µM (inactive) throughout. For the same compound, the GI50 in the test on HT-29, with UACC-62, in the test with M14, in the test with MOLT-4, in the test with 786-0 and in the test on HOP-62 was > 100 µM (inactive) throughout. Besides, the GI50 with EKVX, in the test on CCRF-CEM, with SK-MEL-28, with UO-31 and with NCI-H522 was > 100 µM (inactive) throughout.
As for `Cn1c(=O)n2n(c1=O)C(S(=O)(=O)c1ccccc1)C2` (stereo unspecified), the GI50 in the test with HOP-92, in the test with SF-268, in the test with TK-10, in the test with OVCAR-4, in the test with LOX IMVI and with COLO 205 was > 100 µM (inactive) throughout. The GI50 in the test on SF-295, with HT-29, with UACC-62, in the test on M14, with MOLT-4 and with 786-0 was > 100 µM (inactive) each time. Moreover, the GI50 in the test on HOP-62, in the test on EKVX, with CCRF-CEM, in the test with SK-MEL-28, in the test with UO-31 and in the test on NCI-H522 was > 100 µM (inactive) throughout.
For the compound `O=C1C=CC2(C=C1)CCNC1=C2C(=O)c2ccccc2C1=O`, the GI50 in the test with HOP-92, in the test on SF-268, with TK-10, with OVCAR-4, in the test on LOX IMVI and in the test with COLO 205 was > 100 µM (inactive) each time. Further, the GI50 in the test on SF-295, in the test on HT-29, with UACC-62, in the test with M14, in the test on MOLT-4 and in the test on 786-0 was > 100 µM (inactive) in each case. In addition, the GI50 with HOP-62, in the test on EKVX, in the test on CCRF-CEM, in the test with SK-MEL-28, in the test on UO-31 and in the test on NCI-H522 was > 100 µM (inactive) each time.
As for `Cc1ccc(S(=O)(=O)NCCCCC(N)C(=O)O)cc1` (stereo unspecified), the GI50 in the test with HOP-92, in the test with SF-268, with OVCAR-4, in the test on COLO 205, in the test on SF-295 and with HT-29 was > 100 µM (inactive) in each case. Also, the GI50 in the test on UACC-62, in the test on M14, with MOLT-4, in the test with 786-0, with HOP-62 and in the test with EKVX was > 100 µM (inactive) each time. Also, the GI50 with CCRF-CEM, in the test with SK-MEL-28, in the test with UO-31 and with NCI-H522 was > 100 µM (inactive) throughout.
Regarding `COC1C=COC2(C)Oc3c(C)c(O)c4c(O)c(c(C5SCCS5)c(O)c4c3C2=O)NC(=O)C(C)=C/C=C\C(C)C2OC(C)(C)OC(C2C)C(C)C(OC(C)=O)C1C` (stereo unspecified), the GI50 in the test on HOP-92 is 5.55 µM (inactive); with SF-268, 7.33 µM (inactive); with TK-10 it was 6.41 µM (inactive); with OVCAR-4, 6.07 µM (inactive); in the test with LOX IMVI, 5.31 µM (inactive); in the test on COLO 205 it was 3.38 µM (inactive). The GI50 in the test with SF-295 was 5.32 µM (inactive); with UACC-62, 4.02 µM (inactive); in the test on M14 it was 9.31 µM (inactive); in the test on MOLT-4, 3.83 µM (inactive); in the test on 786-0 it was 10.1 µM (inactive); with HOP-62, 12.2 µM (inactive). Further, the GI50 with CCRF-CEM is 5.86 µM (inactive); in the test on SK-MEL-28, 23.5 µM (inactive); in the test on UO-31, 7.41 µM (inactive); in the test with NCI-H522, 5.02 µM (inactive).
With `CCNC(=S)NNC(=O)C12CC3CC(CC(C3)C1)C2`, the GI50 with SF-268, with TK-10, in the test on OVCAR-4, with LOX IMVI, in the test on COLO 205 and in the test with SF-295 was > 100 µM (inactive) each time. In addition, the GI50 with HT-29, in the test on UACC-62, in the test on M14, in the test on MOLT-4, in the test on 786-0 and in the test with HOP-62 was > 100 µM (inactive) in each case. Also, the GI50 in the test on CCRF-CEM, with SK-MEL-28, with UO-31 and with NCI-H522 was > 100 µM (inactive) in each case.
